Data published in patent US8513265B2, “[6,6] and [6,7]-bicyclic GPR119 G protein-coupled receptor agonists” (Bristol-Myers Squibb Company, priority 2011, dated 2013).
Structures can show the parent of a compound that is named as a salt.

Molecular target: T1, GPR119 G protein-coupled receptor (Homo sapiens, UniProt Q8TDV5)
T1 construct: expressed in transfected cells; host or cells: Flp-In-T-REx 293 cells, tetracycline induced
T1 sequence (Q8TDV5 1-335): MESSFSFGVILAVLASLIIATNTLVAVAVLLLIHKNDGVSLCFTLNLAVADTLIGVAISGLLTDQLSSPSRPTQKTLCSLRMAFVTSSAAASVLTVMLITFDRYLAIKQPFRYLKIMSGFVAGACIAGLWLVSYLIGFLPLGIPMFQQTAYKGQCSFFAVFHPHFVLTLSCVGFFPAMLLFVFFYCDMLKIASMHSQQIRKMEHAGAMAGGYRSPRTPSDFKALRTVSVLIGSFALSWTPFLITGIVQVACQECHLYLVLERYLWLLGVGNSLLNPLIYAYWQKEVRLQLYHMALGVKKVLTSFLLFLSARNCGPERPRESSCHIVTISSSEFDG
Assay: Human Tet-Inducible cAMP Assay (hEC50, Table 1)
Assay type: cell-based
Parameters: IA: scale not given here
Conditions: for IA: IA not defined
Experimental: Human Tet-Inducible cAMP Assay
Cell lines using the Flp-In-T-REx 293 tetracycline inducible gene expression system are cultured in culture medium comprising the following components: DMEM#11965, 10% FBS, 2 mM L-glutamine, 200 ug/ml Hygromycin B, and 15 ug/ml blasticidin.
For cAMP assays, cells are plated on 96 well plates (e.g., BD Falcon: REF 353948, black side, clear bottom, TC surface) at a density of about 4.5×10^4 cells per well in growth medium containing 1.0 ug/ml tetracycline (1.0 mg/ml stock). The cells are then incubated for 48 hours at 37° C.
Following the incubation, the growth medium is removed from the wells and the wells rinsed (once) with the assay buffer included in the Hit Hunter cAMP kit (100 μl/well). Following the wash, 20 μl of assay buffer is added to each well, followed by addition of 10 μl of a 3× concentration compound working solution. The solution is then mixed. The final concentration range of compound is from about 10^−5M to about 10^−11M. The reagents are then incubated at 37° C. at 5% CO2 for 1 hour.
The manufacturer's protocol may be followed for cAMP determination. The Hit Hunter cAMP kit protocol is outlined for the HIT-T15 cAMP assays described above.

Compound | EC50 | IA
CCC(C)OC(=O)N1CCC(N2CCOc3c(Nc4ccc(S(C)(=O)=O)cc4F)ncnc32)CC1 (racemic) [Example 146, (±)-sec-Butyl 4-(4-(2-fluoro-4-(methylsulfonyl)phenylamino)-6H-pyrimido[5,4-b][1,4]oxazin-8(7 H)-yl)piperidine-1-carboxylate, TFA salt] | 8.52 nM | 0.88
CC(C)(C)OC(=O)N1CCC(N2CCOc3c(Nc4ccc(S(C)(=O)=O)cc4Cl)ncnc32)CC1 [Example 7, tert-Butyl 4-(4-(2-chloro-4-(methylsulfonyl)phenylamino)-6H-pyrimido[5,4-b][1,4]oxazin-8(7H)-yl)piperidine-1-carboxylate] | 2.78 nM | 0.81
COc1ccc(Nc2ncnc3c2OCCN3C2CCN(C(=O)OC(C)C)CC2)c(F)c1 [Example 15, iso-Propyl 4-(4-(2-fluoro-4-methoxyphenylamino)-6H-pyrimido[5,4-b][1,4]oxazin-8(7H)-yl)piperidine-1-carboxylate] | 188 nM | 0.48
CS(=O)(=O)c1ccc(Nc2ncnc3c2OCCN3C2CCN(c3nc4ccccc4s3)CC2)c(F)c1 [Example 18, 8-(1-(Benzo[d]thiazol-2-yl)piperidin-4-yl)-N-(2-fluoro-4-(methylsulfonyl)phenyl)-7,8-dihydro-6H-pyrimido[5,4-b][1,4]oxazin-4-amine] | 198 nM | 0.46
Cc1ncccc1Oc1ncnc2c1OCCN2C1CCN(C(=O)OC(C)C)CC1 [Example 25, iso-Propyl 4-(4-(2-methylpyridin-3-yloxy)-6H-pyrimido[5,4-b][1,4]oxazin-8(7H)-yl)piperidine-1-carboxylate] | 4520 nM | 0.27
CC(C)(C)OC(=O)N1CCC(N2C(=O)COc3c(Nc4ccc(S(C)(=O)=O)cc4F)ncnc32)CC1 [Example 26, tert-Butyl 4-(4-(2-fluoro-4-(methylsulfonyl)phenylamino)-7-oxo-6H-pyrimido[5,4-b][1,4]oxazin-8(7H)-yl)piperidine-1-carboxylate] | 8.06 nM | 0.51
COC(=O)c1ccc(Nc2ncnc3c2OCCN3C2CCN(C(=O)OC(C)(C)C)CC2)c(Cl)c1 [Example 45, tert-Butyl 4-(4-(2-chloro-4-(methoxycarbonyl)phenylamino)-6H-pyrimido[5,4-b][1,4]oxazin-8(7H)-yl)piperidine-1-carboxylate] | 158 nM | 0.63
CC(C)(C)OC(=O)N1CCC(N2CCOc3c(Nc4ccc(C(N)=O)cc4Cl)ncnc32)CC1 [Example 47, tert-Butyl 4-(4-(4-carbamoyl-2-chlorophenylamino)-6H-pyrimido[5,4-b][1,4]oxazin-8(7H)-yl)piperidine-1-carboxylate] | 163 nM | 0.78
CC(C)OC(=O)N1CCC(N2CCOc3c(Nc4ccc(C(N)=O)cc4Cl)ncnc32)CC1 [Example 49, iso-Propyl 4-(4-(4-carbamoyl-2-chlorophenylamino)-6H-pyrimido[5,4-b][1,4]oxazin-8(7H)-yl)piperidine-1-carboxylate] | 196 nM | 0.67
CC(C)(C)OC(=O)N1CCC(N2CCOc3c(Nc4c(Cl)cncc4Cl)ncnc32)CC1 [Example 55, tert-Butyl 4-(4-(3,5-dichloropyridin-4-ylamino)-6H-pyrimido[5,4-b][1,4]oxazin-8(7H)-yl)piperidine-1-carboxylate] | 11.1 nM | 0.72
Cc1ccc(Nc2ncnc3c2OCC(=O)N3C2CCN(C(=O)OC(C)(C)C)CC2)cn1 [Example 69, tert-Butyl 4-(4-(6-methylpyridin-3-ylamino)-7-oxo-6H-pyrimido[5,4-b][1,4]oxazin-8(7H)-yl)piperidine-1-carboxylate] | 4310 nM | 0.35
Cc1ccc(Nc2ncnc3c2OCC(=O)N3C2CCN(C(=O)OC(C)C)CC2)cn1 [Example 72, iso-Propyl 4-(4-(6-methylpyridin-3-ylamino)-7-oxo-6H-pyrimido[5,4-b][1,4]oxazin-8(7H)-yl)piperidine-1-carboxylate] | 8580 nM | 0.34
Cc1ncccc1Nc1cccc2c1OCCN2C1CCN(C(=O)OC(C)(C)C)CC1 [Example 76, tert-Butyl 4-(8-(2-methylpyridin-3-ylamino)-2H-benzo[b][1,4]oxazin-4 (3H)-yl)piperidine-1-carboxylate] | 3390 nM | 0.38
CC(C)(C)OC(=O)N1CCC(N2CCCOc3c(Nc4c(Cl)cncc4Cl)ncnc32)CC1 [Example 89, tert-Butyl 4-(4-(3,5-dichloropyridin-4-ylamino)-7,8-dihydropyrimido[5,4-b][1,4]oxazepin-9(6H)-yl)piperidine-1-carboxylate] | 10.3 nM | 0.65
CC(C)(C)OC(=O)N1CCC(N2CCCOc3c(Nc4ccncc4)ncnc32)CC1 [Example 100, tert-Butyl 4-(4-(pyridin-4-ylamino)-7,8-dihydropyrimido[5,4-b][1,4]oxazepin-9(6H)-yl)piperidine-1-carboxylate] | 3450 nM | 0.53
CC(C)OC(=O)N1CCC(N2C(=O)CCc3c(Nc4ccc(S(C)(=O)=O)cc4F)ncnc32)CC1 [Example 118, Isopropyl 4-(4-(2-fluoro-4-(methylsulfonyl)phenylamino)-7-oxo-6,7-dihydropyrido[2,3-d]pyrimidin-8 (5H)-yl)piperidine-1-carboxylate] | 179 nM | 0.63
CC(C)OC(=O)N1CCC(N2CCOc3c(Nc4ccncc4Cl)ncnc32)CC1 [Example 120, Isopropyl 4-(4-(3-chloropyridin-4-ylamino)-6H-pyrimido[5,4-b][1,4]oxazin-8(7H)-yl)piperidine-1-carboxylate] | 181 nM | 0.45
CC(C)OC(=O)N1CCC(N2C(=O)COc3c(Nc4cccnc4Cl)ncnc32)CC1 [Example 127, Isopropyl 4-(4-(2-chloropyridin-3-ylamino)-7-oxo-6H-pyrimido[5,4-b][1,4]oxazin-8(7H)-yl)piperidine-1-carboxylate] | 6180 nM | 0.52
COc1ccc(Nc2ncnc3c2OCCN3C2CCN(C(=O)OC(C)C)CC2)cc1 [Example 128, Isopropyl 4-(4-(4-methoxyphenylamino)-6H-pyrimido[5,4-b][1,4]oxazin-8(7H)-yl)piperidine-1-carboxylate] | 3590 nM | 0.7
CC(C)OC(=O)N1CCC(N2CCOc3c(Nc4ccc5c(c4)OCO5)ncnc32)CC1 [Example 132, Isopropyl 4-(4-(benzo[d][1,3]dioxol-5-ylamino)-6H-pyrimido[5,4-b][1,4]oxazin-8(7H)-yl)piperidine-1-carboxylate] | 3400 nM | 0.37
Cc1cc(C#N)ccc1Nc1ncnc2c1OCCN2C1CCN(C(=O)OC(C)C)CC1 [Example 134, Isopropyl 4-(4-(4-cyano-2-methylphenylamino)-6H-pyrimido[5,4-b][1,4]oxazin-8(7H)-yl)piperidine-1-carboxylate] | 163 nM | 0.59
CC(C)(OC(=O)N1CCC(N2CCOc3c(Nc4ccc(S(C)(=O)=O)cc4F)ncnc32)CC1)C(F)(F)F [Example 143] | 9.74 nM | 0.41
CS(=O)(=O)c1ccc(Nc2ncnc3c2OCCN3C2CCN(C(=O)OCC(F)(F)F)CC2)c(F)c1 [Example 145, 2,2,2-Trifluoroethyl 4-(4-(2-fluoro-4-(methylsulfonyl)phenylamino)-6H-pyrimido[5,4-b][1,4]oxazin-8(7H)-yl)piperidine-1-carboxylate, TFA salt] | 11.4 nM | 0.87
CC(C)(C)OC(=O)N1CCC(N2CCOc3c(Nc4ccc(-n5ccnc5)cc4Cl)ncnc32)CC1 [Example 154, tert-Butyl 4-(4-(2-chloro-4-(1H-imidazol-1-yl)phenylamino)-6H-pyrimido[5,4-b][1,4]oxazin-8(7H)-yl)piperidine-1-carboxylate] | 12.9 nM | 0.65
